Test results published in patent US5801165A, “Antiinflammatory, immunosuppressive and antialleric 16, 17-alkylidioxy-steroids” (Rhone-Poulenc Rorer Limited, priority 1992, dated 1998).

Biological target: T1, Rat thymus glucocorticoid receptor (Rattus norvegicus, UniProt P06536)
T1 construct: The supernatant cytosol is used as the source of receptor; from tissue; host or cells: thymus of male adrenalectomised rats, 100,000 g supernatant cytosol
T1 sequence (P06536 1-795): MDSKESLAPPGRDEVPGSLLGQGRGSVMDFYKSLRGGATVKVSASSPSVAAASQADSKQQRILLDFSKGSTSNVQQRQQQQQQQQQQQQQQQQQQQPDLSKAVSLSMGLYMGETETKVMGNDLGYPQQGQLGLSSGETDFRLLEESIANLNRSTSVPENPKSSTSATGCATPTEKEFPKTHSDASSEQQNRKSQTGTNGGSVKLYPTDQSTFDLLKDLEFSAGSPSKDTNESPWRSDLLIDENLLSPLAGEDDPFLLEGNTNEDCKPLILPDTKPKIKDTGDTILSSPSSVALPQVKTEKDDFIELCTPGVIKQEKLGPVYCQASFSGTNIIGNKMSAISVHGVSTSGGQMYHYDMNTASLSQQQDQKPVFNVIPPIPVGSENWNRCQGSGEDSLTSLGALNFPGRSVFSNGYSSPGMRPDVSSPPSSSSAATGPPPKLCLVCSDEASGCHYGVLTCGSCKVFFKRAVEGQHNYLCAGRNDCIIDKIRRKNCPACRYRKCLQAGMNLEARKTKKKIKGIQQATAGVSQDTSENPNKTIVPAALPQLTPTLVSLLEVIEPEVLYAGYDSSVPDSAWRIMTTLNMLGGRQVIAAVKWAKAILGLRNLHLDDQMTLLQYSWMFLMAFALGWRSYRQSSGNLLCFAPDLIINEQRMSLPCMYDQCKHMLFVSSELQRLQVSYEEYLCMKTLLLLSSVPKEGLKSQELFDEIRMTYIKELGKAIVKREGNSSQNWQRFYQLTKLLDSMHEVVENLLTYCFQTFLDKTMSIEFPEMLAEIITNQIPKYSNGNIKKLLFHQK
Test: Steroid binding to the rat thymus glucocorticoid receptor ([3H] dexamethasone displacement)
Conditions: not given
Source text: GLUCOCORTICOID AGONIST ACTIVITY
STEROID BINDING TO THE RAT THYMUS GLUCOCORTICOID RECEPTOR
Thymi of male adrenalectomised rats are removed and homogenised in 3-(N-morpholino)propanesulphonic acid dithiothreitol buffer, and centrifuged at 100,000 g. The supernatant cytosol is used as the source of receptor. […] Bound [^3 H] dexamethasone is separated from free dexamethasone by a dextran coated charcoal technique and is quantified by liquid scintillation counting.

Point of comparison: CS[C@@]12OC(C)(C)O[C@@H]1C[C@H]1[C@@H]3CCC4=CC(=O)C=C[C@]4(C)[C@@]3(F)[C@@H](O)C[C@@]12C [9α-Fluoro-11β-hydroxy-16α,17α-isopropylidenedioxy-17β-(methylthio)androsta-1,4-dien-3-one], IC50 1.6 nM. Against it:
- CCC[C@@H]1O[C@@H]2C[C@H]3[C@@H]4C[C@H](F)C5=CC(=O)C=C[C@]5(C)[C@@]4(F)[C@@H](O)C[C@]3(C)[C@]2(SCF)O1 [(20R)-16α,17α-Butylidenedioxy-6α,9α-difluoro-11β-hydroxy-17β-(fluoromethylthio)androsta-1,4-dien-3-one] — 1.7-fold higher, 2.7 nM
- CCC[C@@H]1O[C@@H]2C[C@H]3[C@@H]4C[C@H](F)C5=CC(=O)C=C[C@]5(C)[C@@]4(F)[C@@H](O)C[C@]3(C)[C@]2(SC)O1 [(20R)-16α,17α-butylidenedioxy-6α,9α-difluoro-11β-hydroxy-17β-(methylthio)-androsta-1,4-dien-3-one] — 2.3-fold higher, 3.7 nM
- CCCC1O[C@@H]2C[C@H]3[C@@H]4CCC5=CC(=O)C=C[C@]5(C)[C@@]4(F)[C@@H](O)C[C@]3(C)[C@]2(Sc2ccccn2)O1 (stereo partly drawn) [(20R,S)-16α,17α-Butylidenedioxy-9α-fluoro-11β-hydroxy-17β-(2-pyridylthio)androsta-1,4-dien-3-one] — 7.1-fold higher, 11.3 nM

Same assay, conditions: 4 nM [3H] dexamethasone, 24 hours at 4° C., rat thymus cytosol; read-out: IC50 (concentration reducing [3H] dexamethasone binding by 50%)

Point of comparison: CCCC1O[C@@H]2C[C@H]3[C@@H]4CCC5=CC(=O)C=C[C@]5(C)[C@@]4(F)[C@@H](O)C[C@]3(C)[C@]2(SCC)O1 (stereo partly drawn) [(20R,S)-16α,17α-Butylidenedioxy-17β-ethylthio-9α-fluoro-11β-hydroxyandrosta-1,4-dien-3-one], IC50 4.1 nM. Against it:
- CC1(C)O[C@@H]2C[C@H]3[C@@H]4C[C@H](F)C5=CC(=O)C=C[C@]5(C)[C@@]4(F)[C@@H](O)C[C@]3(C)[C@]2(SCF)O1 [6α,9α-Difluoro-11β-hydroxy-16α,17α-isopropylidenedioxy-17β-(fluoromethylthio)androsta-1,4-dien-3-one] — the same, 4.1 nM
- CS[C@@]12OC(C)(C)O[C@@H]1C[C@H]1[C@@H]3C[C@H](F)C4=CC(=O)C=C[C@]4(C)[C@@]3(F)[C@@H](O)C[C@@]12C [6α,9α-Difluoro-11β-hydroxy-16α,17α-isopropylidenedioxy-17β-(methylthio)androsta-1,4-dien-3-one] — within 1.5-fold, 3.2 nM
- CC1(C)O[C@@H]2C[C@H]3[C@@H]4CCC5=CC(=O)C=C[C@]5(C)[C@@]4(F)[C@@H](O)C[C@]3(C)[C@]2(S(C)(=O)=O)O1 [9α-Fluoro-11β-hydroxy-16α,17α-isopropylidene-dioxy-17β-methylsulphonylandrosta-1,4-dien-3-one] — within 1.5-fold, 3.8 nM
- CC1(C)O[C@@H]2C[C@H]3[C@@H]4CCC5=CC(=O)C=C[C@]5(C)[C@@]4(F)[C@@H](O)C[C@]3(C)[C@]2(Sc2ccccn2)O1 [9α-Fluoro-11β-hydroxy-16α,17α-isopropylidenedioxy-17β-(2-pyridylthio)androsta-1,4-dien-3-one] — 6.6-fold higher, 27 nM
- CCC[C@@H]1O[C@@H]2C[C@H]3[C@@H]4C[C@H](F)C5=CC(=O)CC[C@]5(C)[C@@]4(F)[C@@H](O)C[C@]3(C)[C@]2(SCF)O1 [(20R)-6α,9α-Difluoro-11β-hydroxy-16α,17α-butylidenedioxy-17β-fluoromethylthioandrost-4-en-3-one] — within 1.5-fold, 3 nM
- CCC[C@@H]1O[C@@H]2C[C@H]3[C@@H]4CCC5=CC(=O)C=C[C@]5(C)[C@@]4(F)[C@@H](O)C[C@]3(C)[C@]2(SCF)O1 [(20R)-16α,17α-Butylidenedioxy-9α-fluoro-11β-hydroxy-17β-(fluoromethylthio)androsta-1,4-dien-3-one] — 1.8-fold higher, 7.5 nM
- CCC[C@@H]1O[C@@H]2C[C@H]3[C@@H]4CCC5=CC(=O)C=C[C@]5(C)[C@@]4(F)[C@@H](O)C[C@]3(C)[C@]2(SC)O1 [(20R)-16α,17α-Butylidenedioxy-9α-fluoro-11β-hydroxy-17β-(methylthio)androsta-1,4-dien-3-one] — 2.4-fold lower, 1.7 nM
- C/C=C/[C@@H]1O[C@@H]2C[C@H]3[C@@H]4CCC5=CC(=O)C=C[C@]5(C)[C@@]4(F)[C@@H](O)C[C@]3(C)[C@]2(SC)O1 [(20R)-16α,17α-[(E)-2-Butenylidenedioxy]-9α-fluoro-11β-hydroxy-17β-(methylthio)androsta-1,4-dien-3-one] — 1.6-fold lower, 2.6 nM
- CCC[C@@H]1O[C@@H]2C[C@H]3[C@@H]4C[C@H](F)C5CC(=O)CC[C@]5(C)[C@@]4(F)[C@@H](O)C[C@]3(C)[C@]2(SC)O1 (stereo partly drawn) [(20R)-16α,17α-butylidenedioxy-6α,9α-difluoro-11β-hydroxy-17β-(methylthio)androstan-3-one] — 1.6-fold lower, 2.6 nM
- CCC[C@@H]1O[C@@H]2C[C@H]3[C@@H]4CC(=O)C5=CC(=O)C=C[C@]5(C)[C@@]4(F)[C@@H](O)C[C@]3(C)[C@]2(SC)O1 [(20R)-16α,17α-butylidenedioxy-9α-fluoro-11β-hydroxy-17β-(methylthio)androsta-1,4-diene-3,6-dione] — 1.7-fold lower, 2.4 nM
- CCCC1O[C@@H]2C[C@H]3[C@@H]4CCC5=CC(=O)C=C[C@]5(C)[C@@]4(F)[C@@H](O)C[C@]3(C)[C@]2(SC(C)C)O1 (stereo partly drawn) [(20R,S)-16α,17α-Butylidenedioxy-9α-fluoro-11β-hydroxy-17β-(isopropylthio)androsta-1,4-dien-3-one] — within 1.5-fold, 5.5 nM
- CCC[C@H]1O[C@@H]2C[C@H]3[C@@H]4C[C@H](F)C5=CC(=O)CC[C@]5(C)[C@@]4(F)[C@@H](O)C[C@]3(C)[C@]2(SC)O1 [(20S)-16α,17α-Butylidenedioxy-6α,9α-difluoro-11β-hydroxy-17β-(methylthio)androst-4-ene-3-one] — within 1.5-fold, 2.9 nM
- CCCC1O[C@@H]2C[C@H]3[C@@H]4CC(=O)C5=CC(=O)CC[C@]5(C)[C@@]4(F)[C@@H](O)C[C@]3(C)[C@]2(SC)O1 (stereo partly drawn) [(20S)-16α,17α-butylidenedioxy-6α,9α-fluoro-11β-hydroxy-(methylthio)androst-4-en-3,6-dione] — within 1.5-fold, 3.4 nM

Same assay, conditions: read-out: IC50 (concentration reducing [3H] dexamethasone binding by 50%); 4 nM [3H] dexamethasone, 24 hours at 4° C., rat thymus cytosol

Point of comparison: CCC[C@H]1O[C@@H]2C[C@H]3[C@@H]4C[C@H](F)C5=CC(=O)C=C[C@]5(C)[C@@]4(F)[C@@H](O)C[C@]3(C)[C@]2(SCF)O1 [(20S)-6α,9α-difluoro-11β-hydroxy-16α,17α-butylidene-fluoromethylthioandrosta-1,4-dien-3-one], IC50 2.5 nM. Against it:
- CCC[C@@H]1O[C@@H]2C[C@H]3[C@@H]4CCC5=CC(=O)C=C[C@]5(C)[C@@]4(F)[C@@H](O)C[C@]3(C)[C@]2([S+](C)[O-])O1 (stereo partly drawn) [(20R)-9α-Fluoro-11β-hydroxy-16α,17α-butylidenedioxy-17β-methylsulphinylandrosta-1,4-dien-3-one] — 2.6-fold higher, 6.6 nM
